We go through one compound from paper PMC5218480 (PLoS ONE, 2017).

For this experiment, the system named is MV-4-11 cells. Put plainly: Gene expression microarray analysis (Affymetrix PrimeView) and GSEA. Set-up: RFU PODN (11730768_x_at) / Fold change /veh PODN (11730768_x_at) / RFU LINC00158 (11744669_a_at) / Fold change /veh LINC00158 (11744669_a_at) / RFU DUSP10 (11751237_a_at) / Fold change /veh DUSP10 (11751237_a_at) / RFU ID3 (11757404_x_at) / Fold change /veh ID3 (11757404_x_at) / RFU PLEKHG5 (11737974_s_at) / Fold change /veh PLEKHG5 (11737974_s_at) / RFU LRRC4B (11730491_at) / Fold change /veh LRRC4B (11730491_at) / RFU GIMAP4 (11747438_a_at) / Fold change /veh GIMAP4 (11747438_a_at) / RFU KRT8 (11758183_x_at) / Fold change /veh KRT8 (11758183_x_at) / RFU CNN1 (11734310_a_at) / Fold change /veh CNN1 (11734310_a_at) / RFU VPS37D (11726825_at) / Fold change /veh VPS37D (11726825_at) / RFU C10orf10 (11716522_x_at) / Fold change /veh C10orf10 (11716522_x_at) / RFU KIR2DL2 /// KIR2DL4 /// KIR2DL5A /// KIR2DL5B /// KIR2DS1 /// KIR2DS2 /// KIR2DS3 /// KIR2DS4 /// KIR3DL3 /// KIR3DL3 /// KIR3DS1 (11738374_at) / Fold change /veh KIR2DL2 /// KIR2DL4 /// KIR2DL5A /// KIR2DL5B /// KIR2DS1 /// KIR2DS2 /// KIR2DS3 /// KIR2DS4 /// KIR3DL3 /// KIR3DL3 /// KIR3DS1 (11738374_at) / RFU C1QL1 (11718748_at) / Fold change /veh C1QL1 (11718748_at) / RFU TMPRSS4 (11747572_a_at) / Fold change /veh TMPRSS4 (11747572_a_at) / RFU HAMP (11756126_x_at) / Fold change /veh HAMP (11756126_x_at) / RFU RNFT2 (11725882_a_at) / Fold change /veh RNFT2 (11725882_a_at) / RFU NR4A2 (11747474_a_at) / Fold change /veh NR4A2 (11747474_a_at) / RFU ABCC12 (11746883_a_at) / Fold change /veh ABCC12 (11746883_a_at) / RFU TMEM136 (11760407_x_at) / Fold change /veh TMEM136 (11760407_x_at) / RFU CLDN22 /// WWC2 (11732394_at) / Fold change /veh CLDN22 /// WWC2 (11732394_at) / RFU HLA-DPB1 (11760878_x_at) / Fold change /veh HLA-DPB1 (11760878_x_at) / RFU SPINT1 (11716480_a_at) / Fold change /veh SPINT1 (11716480_a_at) / RFU GAP43 (11754022_s_at) / Fold change /veh GAP43 (11754022_s_at) / RFU A4GNT (11735810_at) / Fold change /veh A4GNT (11735810_at) / RFU PRB3 (11715151_x_at) / Fold change /veh PRB3 (11715151_x_at) / RFU TUBB4B (11761932_at) / Fold change /veh TUBB4B (11761932_at) / RFU CAPN14 (11732068_a_at) / Fold change /veh CAPN14 (11732068_a_at) / RFU TMCC2 (11721928_a_at) / Fold change /veh TMCC2 (11721928_a_at) / RFU IRGQ (11745062_a_at) / Fold change /veh IRGQ (11745062_a_at) / RFU FAM174B (11720279_a_at) / Fold change /veh FAM174B (11720279_a_at) / RFU TMPRSS4 (11748680_a_at) / Fold change /veh TMPRSS4 (11748680_a_at) / RFU FAM212B (11763350_a_at) / Fold change /veh FAM212B (11763350_a_at) / RFU PLEKHG5 (11743358_a_at) / Fold change /veh PLEKHG5 (11743358_a_at) / RFU ZSCAN30 (11745921_a_at) / Fold change /veh ZSCAN30 (11745921_a_at) / RFU CMKLR1 (11741424_a_at) / Fold change /veh CMKLR1 (11741424_a_at) / RFU LOC101060620 /// MAPK8IP1 (11723275_at) / Fold change /veh LOC101060620 /// MAPK8IP1 (11723275_at) / RFU SPTSSB (11747773_x_at) / Fold change /veh SPTSSB (11747773_x_at) / RFU PRSS12 (11739890_at) / Fold change /veh PRSS12 (11739890_at) / RFU BIN1 (11741810_x_at) / Fold change /veh BIN1 (11741810_x_at) / RFU WNT11 (11732464_a_at) / Fold change /veh WNT11 (11732464_a_at) / RFU C10orf10 (11716521_a_at) / Fold change /veh C10orf10 (11716521_a_at) / RFU C5orf56 (11738089_at) / Fold change /veh C5orf56 (11738089_at) / RFU CYB561 (11721691_x_at) / Fold change /veh CYB561 (11721691_x_at) / RFU ANKRD19P (11752326_a_at) / Fold change /veh ANKRD19P (11752326_a_at) / RFU OR2T12 /// OR2T33 /// OR2T8 (11738714_s_at) / Fold change /veh OR2T12 /// OR2T33 /// OR2T8 (11738714_s_at) / RFU VCAN (11748164_a_at) / Fold change /veh VCAN (11748164_a_at) / RFU JSRP1 (11732532_at) / Fold change /veh JSRP1 (11732532_at) / RFU KRTAP10-11 (11738290_x_at) / Fold change /veh KRTAP10-11 (11738290_x_at) / RFU MYO3A (11730013_a_at) / Fold change /veh MYO3A (11730013_a_at) / RFU EBF3 (11725865_a_at) / Fold change /veh EBF3 (11725865_a_at) / RFU CAMK2N1 (11719241_x_at) / Fold change /veh CAMK2N1 (11719241_x_at) / RFU C5orf56 (11738088_a_at) / Fold change /veh C5orf56 (11738088_a_at) / RFU OLFML3 (11715873_a_at) / Fold change /veh OLFML3 (11715873_a_at) / RFU LOC100653217 /// NTM (11731650_a_at) / Fold change /veh LOC100653217 /// NTM (11731650_a_at) / RFU MAPK11 (11762145_a_at) / Fold change /veh MAPK11 (11762145_a_at) / RFU FIZ1 (11724087_x_at) / Fold change /veh FIZ1 (11724087_x_at) / RFU OASL (11726364_x_at) / Fold change /veh OASL (11726364_x_at) / RFU SOX15 (11748057_x_at) / Fold change /veh SOX15 (11748057_x_at) / RFU CD79A (11719716_a_at) / Fold change /veh CD79A (11719716_a_at) / RFU HIST1H1D (11736915_at) / Fold change /veh HIST1H1D (11736915_at) / RFU CASKIN2 (11723855_a_at) / Fold change /veh CASKIN2 (11723855_a_at) / RFU LOC730098 (11760151_x_at) / Fold change /veh LOC730098 (11760151_x_at) / RFU OR4N2 (11742367_at) / Fold change /veh OR4N2 (11742367_at) / RFU PRRT2 (11749266_a_at) / Fold change /veh PRRT2 (11749266_a_at) / RFU SNX32 (11753110_a_at) / Fold change /veh SNX32 (11753110_a_at) / RFU CDHR5 (11726645_a_at) / Fold change /veh CDHR5 (11726645_a_at) / RFU RCAN1 (11760418_a_at) / Fold change /veh RCAN1 (11760418_a_at) / RFU FAM167A (11723789_a_at) / Fold change /veh FAM167A (11723789_a_at) / RFU FAM26E (11764081_at) / Fold change /veh FAM26E (11764081_at) / RFU ISYNA1 (11749810_s_at) / Fold change /veh ISYNA1 (11749810_s_at) / RFU ACY1 (11761880_at) / Fold change /veh ACY1 (11761880_at) / RFU 11764098_at / Fold change /veh 11764098_at / RFU SAMD14 (11745864_x_at) / Fold change /veh SAMD14 (11745864_x_at) / RFU NPB (11741838_a_at) / Fold change /veh NPB (11741838_a_at) / RFU TMPRSS6 (11731388_a_at) / Fold change /veh TMPRSS6 (11731388_a_at) / RFU KRTAP10-2 (11738614_at) / Fold change /veh KRTAP10-2 (11738614_at) / RFU ARHGAP8 /// PRR5-ARHGAP8 (11727945_x_at) / Fold change /veh ARHGAP8 /// PRR5-ARHGAP8 (11727945_x_at) / RFU KRTAP5-7 /// NADSYN1 (11734609_at) / Fold change /veh KRTAP5-7 /// NADSYN1 (11734609_at) / RFU RASL12 (11751679_a_at) / Fold change /veh RASL12 (11751679_a_at) / RFU CDKN2B (11736163_a_at) / Fold change /veh CDKN2B (11736163_a_at) / RFU PRF1 (11729649_at) / Fold change /veh PRF1 (11729649_at) / RFU, ZNF638 /// ZNF638-IT1 / Fold change vs veh, ZNF638 /// ZNF638-IT1 / RFU, PANK3 / Fold change vs veh, PANK3 / RFU, SH3YL1 / Fold change vs veh, SH3YL1 / RFU, ZEB2 / Fold change vs veh, ZEB2 / RFU, NRIP1 / Fold change vs veh, NRIP1 / RFU, PTTG1IP / Fold change vs veh, PTTG1IP / RFU, CAPN2 / Fold change vs veh, CAPN2 / RFU, MED14 / Fold change vs veh, MED14 / RFU, SNORA58 / Fold change vs veh, SNORA58 / RFU, C1orf63 / Fold change vs veh, C1orf63 / RFU, LRRFIP1 / Fold change vs veh, LRRFIP1 / RFU, NDUFAF7 / Fold change vs veh, NDUFAF7 / RFU, SLC12A2 / Fold change vs veh, SLC12A2 / RFU, IBTK / Fold change vs veh, IBTK / RFU, ESF1 / Fold change vs veh, ESF1 / Fold change vs veh, TMEM50B / RFU, TAOK1 / Fold change vs veh, TAOK1 / RFU, ACBD3 / Fold change vs veh, ACBD3 / RFU, TMA16 / Fold change vs veh, TMA16 / RFU, RWDD3 / Fold change vs veh, RWDD3 / RFU, BCAT1 / Fold change vs veh, BCAT1 / RFU, EDEM3 / Fold change vs veh, EDEM3 / RFU, TMEM33 / Fold change vs veh, TMEM33 / RFU, WDR75 / Fold change vs veh, WDR75 / RFU, AHCTF1 / Fold change vs veh, AHCTF1 / RFU, TFRC / Fold change vs veh, TFRC / RFU, ZDHHC17 / Fold change vs veh, ZDHHC17 / RFU, NOM1 / Fold change vs veh, NOM1 / RFU, ARL8B / Fold change vs veh, ARL8B / RFU, ZBTB11 / Fold change vs veh, ZBTB11 / RFU, TAMM41 / Fold change vs veh, TAMM41 / RFU, KIAA1704 /// LOC100996395 / Fold change vs veh, KIAA1704 /// LOC100996395 / RFU, ING1 / Fold change vs veh, ING1 / RFU, TRMT61B / Fold change vs veh, TRMT61B / RFU, FUBP3 / Fold change vs veh, FUBP3 / RFU, TP53 / Fold change vs veh, TP53 / RFU, TNKS2 / Fold change vs veh, TNKS2 / RFU, ZFP14 / Fold change vs veh, ZFP14 / RFU, ACTR2 / Fold change vs veh, ACTR2 / RFU, PPP3R1 / Fold change vs veh, PPP3R1 / RFU, PIK3R1 / Fold change vs veh, PIK3R1 / RFU, HNRNPA1 / Fold change vs veh, HNRNPA1 / RFU, RNF170 / Fold change vs veh, RNF170 / RFU, ZNF28 / Fold change vs veh, ZNF28 / RFU, RNGTT / Fold change vs veh, RNGTT / RFU, OGT / Fold change vs veh, OGT / RFU, BRD1 / Fold change vs veh, BRD1 / RFU, MARS / Fold change vs veh, MARS / RFU, ZNF655 / Fold change vs veh, ZNF655 / RFU, FAHD1 / Fold change vs veh, FAHD1 / RFU, BDP1 / Fold change vs veh, BDP1 / RFU, LRRCC1 / Fold change vs veh, LRRCC1 / RFU, ARID1A / Fold change vs veh, ARID1A / RFU, ZNF146 / Fold change vs veh, ZNF146 / RFU, ZNF330 / Fold change vs veh, ZNF330 / RFU, GPN3 / Fold change vs veh, GPN3 / RFU, C9orf123 / Fold change vs veh, C9orf123 / RFU, N4BP2L2 / Fold change vs veh, N4BP2L2 / RFU, ARFIP1 / Fold change vs veh, ARFIP1 / RFU, FAM179B / Fold change vs veh, FAM179B / RFU, BCL10 / Fold change vs veh, BCL10 / RFU, UHRF1BP1L / Fold change vs veh, UHRF1BP1L / RFU, BET1 / Fold change vs veh, BET1 / RFU, CNOT2 / Fold change vs veh, CNOT2 / RFU, ZNF268 / Fold change vs veh, ZNF268 / Fold change vs veh, ZNF507 / RFU, DGCR2 / Fold change vs veh, DGCR2 / RFU, WDSUB1 / Fold change vs veh, WDSUB1 / Fold change vs veh, HSP90B1 /// MIR3652 / RFU, ADSS / Fold change vs veh, ADSS / RFU, GK / Fold change vs veh, GK / RFU, ZNF148 / Fold change vs veh, ZNF148 / RFU, TAF9 / Fold change vs veh, TAF9 / RFU, SLC1A5 / Fold change vs veh, SLC1A5 / RFU, SLMO2 / Fold change vs veh, SLMO2 / RFU, ABCC4 / Fold change vs veh, ABCC4 / RFU, LOC101060439 /// RAP1B / Fold change vs veh, LOC101060439 /// RAP1B / RFU, RFX7 / Fold change vs veh, RFX7 / RFU, GTPBP10 / Fold change vs veh, GTPBP10 / RFU, CNEP1R1 / Fold change vs veh, CNEP1R1 / RFU, BIVM-ERCC5 /// ERCC5 / Fold change vs veh, BIVM-ERCC5 /// ERCC5 / RFU, ILF3 / Fold change vs veh, ILF3 / RFU 11762660_at / Fold change /veh 11762660_at / RFU VCAN (11757783_s_at) / Fold change /veh VCAN (11757783_s_at) / RFU DDX43 (11728927_at) / Fold change /veh DDX43 (11728927_at) / RFU KRT8 (11758188_x_at) / Fold change /veh KRT8 (11758188_x_at) / RFU NKD1 (11759106_at) / Fold change /veh NKD1 (11759106_at) / RFU SRD5A1 (11742802_a_at) / Fold change /veh SRD5A1 (11742802_a_at) / RFU TPSAB1 /// TPSB2 (11721975_s_at) / Fold change /veh TPSAB1 /// TPSB2 (11721975_s_at) / RFU GSTM3 (11746129_a_at) / Fold change /veh GSTM3 (11746129_a_at) / RFU IL23R (11737362_x_at) / Fold change /veh IL23R (11737362_x_at) / RFU TMEM51 (11727254_a_at) / Fold change /veh TMEM51 (11727254_a_at) / RFU PIWIL2 (11732686_x_at) / Fold change /veh PIWIL2 (11732686_x_at) / RFU ORM1 (11744905_x_at) / Fold change /veh ORM1 (11744905_x_at) / RFU CCDC152 (11743942_at) / Fold change /veh CCDC152 (11743942_at) / RFU ECM1 (11717891_a_at) / Fold change /veh ECM1 (11717891_a_at) / RFU IL23R (11748794_a_at) / Fold change /veh IL23R (11748794_a_at) / RFU TNFAIP8L3 (11732012_x_at) / Fold change /veh TNFAIP8L3 (11732012_x_at) / RFU MBOAT4 (11741988_at) / Fold change /veh MBOAT4 (11741988_at) / RFU 11764193_at / Fold change /veh 11764193_at / RFU TMEM53 (11763286_at) / Fold change /veh TMEM53 (11763286_at) / RFU MAGEB2 (11727129_at) / Fold change /veh MAGEB2 (11727129_at) / RFU TMEM200A (11744735_a_at) / Fold change /veh TMEM200A (11744735_a_at) / RFU CCDC152 (11751479_a_at) / Fold change /veh CCDC152 (11751479_a_at) / RFU FAM211A (11726209_a_at) / Fold change /veh FAM211A (11726209_a_at) / RFU RGS16 (11746705_a_at) / Fold change /veh RGS16 (11746705_a_at) / RFU VCAN (11755009_s_at) / Fold change /veh VCAN (11755009_s_at) / RFU RHOB (11743442_s_at) / Fold change /veh RHOB (11743442_s_at) / RFU RGS16 (11720943_a_at) / Fold change /veh RGS16 (11720943_a_at) / RFU RGS16 (11720944_at) / Fold change /veh RGS16 (11720944_at) / RFU, VPS4B / Fold change vs veh, VPS4B / RFU, CREB1 / Fold change vs veh, CREB1 / RFU, DNAJC13 / Fold change vs veh, DNAJC13 / RFU, GNAQ / Fold change vs veh, GNAQ / RFU, CDK5R1 / Fold change vs veh, CDK5R1 / RFU, ZRANB3 / Fold change vs veh, ZRANB3 / RFU, CUL4A / Fold change vs veh, CUL4A / RFU, CCNY / Fold change vs veh, CCNY / RFU, UFL1 / Fold change vs veh, UFL1 / RFU, COG3 / Fold change vs veh, COG3 / RFU, DIAPH2 / Fold change vs veh, DIAPH2 / RFU, SKA2 / Fold change vs veh, SKA2 / RFU, AFF3 / Fold change vs veh, AFF3 / RFU, LMF1 / Fold change vs veh, LMF1 / RFU, IPO11 / Fold change vs veh, IPO11 / RFU, DFFB / Fold change vs veh, DFFB / RFU, FOXP1 / Fold change vs veh, FOXP1 / RFU, CARD8 / Fold change vs veh, CARD8 / RFU, STRN3 / Fold change vs veh, STRN3 / RFU, ADK / Fold change vs veh, ADK / RFU, RASSF2 / Fold change vs veh, RASSF2 / RFU, WIPF1 / Fold change vs veh, WIPF1 / RFU, LARP1B / Fold change vs veh, LARP1B / RFU, RASA1 / Fold change vs veh, RASA1 / RFU, RB1 / Fold change vs veh, RB1 / RFU, PPFIA1 / Fold change vs veh, PPFIA1 / RFU, MAT2A / Fold change vs veh, MAT2A / RFU, CCT5 / Fold change vs veh, CCT5 / RFU, WDR92 / Fold change vs veh, WDR92 / RFU, CUX1 / Fold change vs veh, CUX1 / RFU, TTC7A / Fold change vs veh, TTC7A / RFU, TMEM135 / Fold change vs veh, TMEM135 / RFU, DEPTOR / Fold change vs veh, DEPTOR / RFU, CPM / Fold change vs veh, CPM / RFU, DNAJB6 / Fold change vs veh, DNAJB6 / RFU, CACNA2D3 / Fold change vs veh, CACNA2D3 / RFU, DTX4 / Fold change vs veh, DTX4 / RFU, TFCP2 / Fold change vs veh, TFCP2 / RFU, GMCL1 /// GMCL1P1 / Fold change vs veh, GMCL1 /// GMCL1P1 / RFU, AEBP2 / Fold change vs veh, AEBP2 / RFU, SNHG1 /// SNORD22 /// SNORD25 /// SNORD26 /// SNORD27 /// SNORD28 /// SNORD29 /// SNORD31 / Fold change vs veh, SNHG1 /// SNORD22 /// SNORD25 /// SNORD26 /// SNORD27 /// SNORD28 /// SNORD29 /// SNORD31 / Fold change (Aza/veh), C12orf56 (ProbeSet 11735607_a_at) / Fold change (ACY-1035/veh), C12orf56 (ProbeSet 11735607_a_at) / Fold change (Aza/veh), FGFR1OP (ProbeSet 11751329_s_at) / Fold change (ACY-1035/veh), FGFR1OP (ProbeSet 11751329_s_at) / Fold change (Aza/veh), VPS36 (ProbeSet 11739960_a_at) / Fold change (ACY-1035/veh), VPS36 (ProbeSet 11739960_a_at) / RFU SYPL1 (11715823_x_at) / Fold change /veh SYPL1 (11715823_x_at) / RFU IGFBP7 (11715501_s_at) / Fold change /veh IGFBP7 (11715501_s_at) / RFU REEP3 (11722064_at) / Fold change /veh REEP3 (11722064_at) / RFU IGLL1 (11728026_x_at) / Fold change /veh IGLL1 (11728026_x_at): dose or concentration left out as unconfirmed. In kind it is cell-based, human. The note with it: MV-4-11 cells, 48 hours.

On to `Nc1ccc(-c2cccs2)cc1NC(=O)c1ccc2c(c1)cc(C1CC1)n2CCN1CCOCC1` [ACY-1035], for which the “RFU SOX15 (11748057_x_at)” value turned out to be 11.14 RFU.
